# Source: US12428428B2, “Tricyclic tetrahydroisoquinoline derivative, preparation method therefor and application thereof in medicine” (JIANGSU HENGRUI MEDICINE CO., LTD., priority 2020, dated 2025)
# Target: hERG potassium channels (Homo sapiens (Human), UniProt Q12809)
# Experiment: Blocking of hERG potassium currents (automated patch clamp, HEK293-hERG)
# Format: cell-based
# Conditions: HEK293-hERG stable cell strain
# Description: The blocking of hERG potassium currents by the compounds disclosed herein was tested in a stable cell strain transfected with hERG potassium channels using automated patch clamp.
# An HEK293-hERG stable cell strain was subcultured in an MEM/EBSS medium (10% FBS, 400 μg/mL G418, 1% MEM non-essential amino acid solution (100×), 1% sodium pyruvate solution) at a density of 1:4, and an automated patch clamp experiment was conducted between hour 48 and hour 72 after the start of the culture. On the day of the experiment, the cells were digested with 0.25% trypsin, then centrifuged, collected, and resuspended in an extracellular fluid (140 mM NaCl, 4 mM KCl, 1 mM MgCl2, 2 mM CaCl2), 5 mM D-glucose monohydrate, 10 mM Hepes, pH 7.4, 298 mOsm) to form a cell suspension. The cell suspension was placed on the cell bank of the Patchliner instrument, which then applied the cells to a chip (NPC-16) by means of a negative pressure controller. The negative pressure drew individual cells to the wells of the chip. […] Data were recorded and analyzed using the HEAK Patchmaster, HEAK EPC10 patch clamp amplifier (Nanion), Pathliner software and Pathcontrol HT software, and the currents of the compounds at each concentration and the current of the blank control were analyzed.
# hERG potassium channels, sequence (Q12809 whole entry): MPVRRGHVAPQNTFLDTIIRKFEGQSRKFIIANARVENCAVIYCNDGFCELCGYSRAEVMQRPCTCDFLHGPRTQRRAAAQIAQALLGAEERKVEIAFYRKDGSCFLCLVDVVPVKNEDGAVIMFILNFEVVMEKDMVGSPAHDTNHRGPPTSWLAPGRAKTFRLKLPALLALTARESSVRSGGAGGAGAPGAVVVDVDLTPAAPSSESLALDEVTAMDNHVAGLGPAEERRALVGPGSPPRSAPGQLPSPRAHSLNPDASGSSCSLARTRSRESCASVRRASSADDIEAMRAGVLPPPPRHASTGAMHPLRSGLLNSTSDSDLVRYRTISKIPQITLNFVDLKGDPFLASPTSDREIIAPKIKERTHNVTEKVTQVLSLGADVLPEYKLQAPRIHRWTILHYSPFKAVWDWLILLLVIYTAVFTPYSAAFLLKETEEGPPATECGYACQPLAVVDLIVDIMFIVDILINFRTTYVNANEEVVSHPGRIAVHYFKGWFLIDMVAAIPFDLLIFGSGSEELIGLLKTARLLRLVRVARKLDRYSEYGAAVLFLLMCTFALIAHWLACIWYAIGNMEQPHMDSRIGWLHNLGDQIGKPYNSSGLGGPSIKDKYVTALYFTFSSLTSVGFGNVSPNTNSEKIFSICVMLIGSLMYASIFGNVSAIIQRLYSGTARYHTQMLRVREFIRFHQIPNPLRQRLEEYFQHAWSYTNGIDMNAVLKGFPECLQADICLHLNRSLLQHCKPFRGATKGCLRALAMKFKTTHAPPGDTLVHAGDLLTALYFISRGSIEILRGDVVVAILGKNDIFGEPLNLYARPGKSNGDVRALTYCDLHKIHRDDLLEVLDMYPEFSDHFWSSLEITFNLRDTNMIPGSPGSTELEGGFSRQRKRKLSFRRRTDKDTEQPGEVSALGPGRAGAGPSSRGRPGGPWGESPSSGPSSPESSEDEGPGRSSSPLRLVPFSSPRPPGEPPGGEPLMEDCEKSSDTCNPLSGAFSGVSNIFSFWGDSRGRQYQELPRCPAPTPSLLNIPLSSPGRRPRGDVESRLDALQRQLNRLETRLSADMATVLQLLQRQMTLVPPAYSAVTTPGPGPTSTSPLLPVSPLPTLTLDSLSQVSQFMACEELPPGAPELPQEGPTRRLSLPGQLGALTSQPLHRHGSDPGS
row,Compound,IC50 [µM]
1,"C[C@@H]1Cc2cc3c(cc2[C@@H](c2ncc(N[C@H]4CCN(CCCF)C4)cc2F)N1CC(F)(F)CO)OCO3 [Example 11, 2,2-Difluoro-3-((5S,7R)-5-(3-fluoro-5-(((S)-1-(3-fluoropropyl)pyrrolidin-3-yl)amino)pyridin-2-yl)-7-methyl-7,8-dihydro-[1,3]dioxolo[4,5-g]isoquinolin-6(5H)-yl)propan-1-ol]",> 30
2,"[2H]C1([2H])Oc2cc3c(cc2O1)[C@@H](c1ccc(N[C@H]2CCN(CCCF)C2)cn1)N(CC(F)(F)CO)[C@H](C)C3 [Example 12, 2,2-Difluoro-3-((5S,7R)-5-(5-(((S)-1-(3-fluoropropyl)pyrrolidin-3-yl)amino)pyridin-2-yl)-7-methyl-7,8-dihydro-[1,3]dioxolo[4,5-g]isoquinolin-6(5H)-yl-2,2-d2)propan-1-ol]",> 30
